The conditions of data set [1]: intracavernosal, cited from earlier work; for Results of i.c. injection in erectile dysfunction: either alone or in combination.
For data set [2] the following is noted: currently used oral route; cited from earlier work.
Data set [3] in a line: Absorption of solubilized sildenafil from the nasal cavity of rats (blood concentration after intranasal vs intravenous administration). The format is in vivo. The settings on record: for Concentration of sildenafil in the blood of rats, intranasal, mean: n = 5; for Concentration of sildenafil in the blood of rats, intravenous, mean: n = 3. As to the method: These experiments determine the bioavailability of sildenafil, or derivatives thereof, after nasal administration and compare it to that after intravenous administration. In particular, the present experiment determined the absorption of sildenafil into the blood of rats following intranasal administration of a formulation in which the sildenafil was solubilized by the addition of mesylic acid (see below).
The nasal absorption of sildenafil, or derivatives thereof, were measured using an in vivo technique in rats. Rats were fasted overnight prior to experimentation. Surgical procedures were performed under equithesin anesthesia (3 ml/kg, i.p.). An incision was made in the neck of each rat, and the trachea cannulated with polyethylene tubing (PF-260). A closed end tube was inserted through the esophagus to the posterior part of the nasal cavity to prevent drug from entering the esophagus. The nasopalatine passage was closed with an adhesive agent to prevent drainage of the drug from the nasal cavity to the mouth.
The jugular vein and femoral artery were cannulated with polyethylene tubing for intravenous drug administration and intra-arterial blood sampling.
Solutions of sildenafil hydrochloride (2 and 4 mg/rat/50 μl) were prepared in water and administered through the right nostril using a microsyringe. For intravenous administration, the same dose of the drug was injected into the jugular vein (1 ml/kg body weight). […]
Bioavailability of nasally administered drug was calculated by comparing the plasma drug concentrations between nasal and intravenous delivery routes and expressed as a percentage of the intravenous bioavailability.
The solution instilled into the nasal cavities of the rats in this experiment had the following composition:
Adjust the pH to 2.8 to 3.0 with 0.05M NaOH
At various times following the intranasal and intravenous administration of sildenafil to rats, the concentrations of sildenafil in blood were determined using the following analytical method:
One hundred microliters of rat plasma was treated with 25 microliters of 1M monochloroacetic acid to denature the plasma proteins and release free sildenafil. Seventy-five microliters of acetonitrile was then added to precipitate the proteins. This solution was centifuged for 5 minutes at 5,000 g. The clear supernatant was injected onto the HPLC column.
The HPLC system consisted of the following:
The concentrations are expressed as areas under the HPLC curves×10^-4.

The nature of data set [4]: Peak plasma concentration time / response in humans, current oral tablet formulation vs intranasal route. The format is in vivo. The following applies: indicated by rat results.
The conditions of data set [5]: sublingual, cited from earlier work.
The conditions of data set [6]: cited from earlier work.
Data set [7] is described as follows: Solubility of the citrate salt in water. The data set is classed as physicochemical.

We go through 9 compounds from patent US6200591A, “Method of administration of sildenafil to produce instantaneous response for the treatment of erectile dysfunction” (priority 1998, dated 2001).

Entries after “also recorded” stand apart in the source; their conditions may differ. Structures can show the parent of a compound that is named as a salt. Ends that are not written are not given here.

The term solubility denotes how much of the substance goes into solution per volume.

With `CCCCC[C@H](O)/C=C/[C@H]1[C@H](O)CC(=O)[C@@H]1CCCCCCC(=O)O` [PGE-1], the “Results of i.c. injection in erectile dysfunction” value (“Results of i.c. injection” for short) in data set [1] was “good results”.

`CCCc1nn(C)c2c(=O)[nH]c(-c3cc(S(=O)(=O)N4CCN(C)CC4)ccc3OCC)nc12` [Sildenafil, 5-[2-ethoxy-5-(4-methyl-1-piperazinylsulphonyl)-phenyl]-1-methyl-3-n-propyl-1,6-dihydro-7H-pyrazolo[4,3-d]pyrimidin-7-one]: in data set [2], the “Time to response, oral route” value is at least 60 min. In addition, the “Effectiveness of intranasal compared with intravenous administration” value in data set [3] (intranasal vs intravenous) was “as effective as intravenous administration”. Also, in data set [3] (intranasal, comparison of areas under blood concentration versus time curves with intravenous (FIG. 1)), the “Absorption following intranasal administration” value is “complete and very rapid absorption; also recorded: rapidly and complete absorbed”. The “Concentration of sildenafil in the blood of rats, intranasal, mean” value is recorded as 11.7 areas under the HPLC curves×10 in data set [3] (intranasal); 12.1 areas under the HPLC curves×10 in data set [3] (intranasal, time 2 min); 25.5 areas under the HPLC curves×10 in data set [3] (intranasal, time 5 min); 38.2 areas under the HPLC curves×10 in data set [3] (intranasal, time 10 min); 43.5 areas under the HPLC curves×10 in data set [3] (intranasal, time 15 min); 32.6 areas under the HPLC curves×10 in data set [3] (intranasal, time 20 min). The “Concentration of sildenafil in the blood of rats, intranasal, mean” value is reported as 31.0 areas under the HPLC curves×10 in data set [3] (intranasal, time 30 min); 22.7 areas under the HPLC curves×10 in data set [3] (intranasal, time 40 min); 19.6 areas under the HPLC curves×10 in data set [3] (intranasal, time 50 min). The “Concentration of sildenafil in the blood of rats, intravenous, mean” value is listed as 188.8 areas under the HPLC curves×10 in data set [3] (time 0 min); 84.7 areas under the HPLC curves×10 in data set [3] (time 2 min); 47.7 areas under the HPLC curves×10 in data set [3] (time 5 min); 32.0 areas under the HPLC curves×10 in data set [3] (time 10 min); 19.5 areas under the HPLC curves×10 in data set [3] (time 15 min); 17.9 areas under the HPLC curves×10 in data set [3] (time 20 min). Moreover, the “Concentration of sildenafil in the blood of rats, intravenous, mean” value in data set [3] (time 30 min) is recorded as 16.0 areas under the HPLC curves×10; in data set [3] (time 40 min), 14.6 areas under the HPLC curves×10; in data set [3] (time 50 min), 7.6 areas under the HPLC curves×10. For the same compound, the Tmax in data set [3] (rat, in vivo, rats, intranasal, approximately, read-out: Time of peak blood concentration) fell in the range of 10 to 15 min. The “Response in humans, intranasal route vs current oral tablet” value in data set [4] was “much more rapid response”.

As to `CN1CCc2cccc3c2[C@H]1Cc1ccc(O)c(O)c1-3` [apomorphine], the “Effect on erectile function” value in data set [5] was “restore normal erectile function”. The “Men returned to sexual potency” value in data set [5] (men whose dysfunction had psychological origins) is recorded as “about 70%”.

As for `O=[N+]([O-])OCC(CO[N+](=O)[O-])O[N+](=O)[O-]` [glyceryl trinitrate (GTN), glyceryl trinitrate], in data set [6], the “Effect of patches applied to the penis” value is “effective”; the “Side-effects of patches applied to the penis” value was “produces side-effects in both patient and partner”.

`COc1ccc(Cc2nccc3cc(OC)c(OC)cc23)cc1OC` [papaverine]: the “Results of i.c. injection” value in data set [1] was “good results”.

Turning to `CC(COc1ccccc1)N(CCCl)Cc1ccccc1` (stereo not drawn) [phenoxybenzamine], in data set [1], the “Results of i.c. injection” value is recorded as “good results”.

On to `Cc1ccc(N(CC2=NCCN2)c2cccc(O)c2)cc1` [phentolamine], for which the “Results of i.c. injection” value in data set [1] was “good results”.

Take `CCCc1nn(C)c2c(=O)[nH]c(-c3cc(S(=O)(=O)N4CCN(C)CC4)ccc3OCC)nc12` [sildenafil citrate]: in data set [7], the solubility came out at 3500 µg/mL.

For the compound “vasoactive intestinal polypeptide (VIP): vasoactive intestinal polypeptide (HSDAVFTDNYTRLRKQMAVKKYLNSILN; ends and bridges not checked; UniProt P01282 125-152, looked up)”, the Activity i.c. result in data set [1] is on record as “active i.c”.
